Read-outs that look alike come from different tables or passages of the source.
How the values were obtained:
3T3-L1 cells [1] = conditions: for Cell Viability: mouse
Method: DMEM medium (Gibco) supplemented with 10% Bovine Calf Serum and 1% Penicillin-streptomycin was used as a growth media (GM) to culture 3T3-L1 cells, which are mouse preadipocytes. The suspension was suspended at a concentration of 2×10^3 cells/ml, and 100 μl each was inoculated into a 96-well plate, and the cells were cultured to full capacity for 3 days. In order to induce fat differentiation, DMEM medium containing 10% FBS was replaced with a differentiation media (DM) supplemented with insulin, dexamethasone and 3-isobutyl-1-methylxanthine (IBMX), and cultured for 2 days. After 2 days, DMEM medium containing 10% FBS containing insulin was added to the existing medium. […] As described in the CCK-8 (Dojindo) kit for counting cells, 10 μl of CCK-8 solution was mixed with 90 μl of medium and added at 100 μl per well. After reacting for at least 30 minutes to 1 hour, absorbance was measured at 450 nm.

L6 myotube cells [2] = experiment: Isobologram analysis of glucose absorption capacity, chiisanogenin and Ca-HCA; format: cell-based; conditions: Rattus norvegicus; differentiated L6 myotube cells, single compound
Method: (§1) To differentiate rat myoblast L6 cells into myotubes, it was suspended at a concentration of 1×10^4 cells/ml in MEM medium (Welgene) supplemented with 10% of Fetal Bovine Serum and 1% of antibiotic antimycotic, and then 500 μl each was inoculated into a 24-well plate and cultured to the full for 2 days. […] The differentiated myotube cells were replaced with serum-free medium before the experiment and left for 6 hours. Myotube cells were pretreated with 100 nM porcine-derived insulin and 20 μM cytochalacin B for 15 minutes, and other samples were pretreated for 30 minutes. […] After the reaction, the cells were washed twice with Krebs-Ringer buffer (20 mM Tris-HCl, 2 mM EDTA, and 0.5 mM EGTA, pH 7.4), and the cells were lysed with 0.5N NaOH and mixed with a scintillation cocktail. The intracellular radiation dose of 2-DG was measured using a liquid scintillation counter (Tri-Carb 2900TR liquid scintillation analyzer, Perkin Elmer).

L6 myotube cells [3] = experiment: Glucose uptake (2-deoxy-D-[14C]-glucose) in muscle cells; format: cell-based, rat
Method: as §1

3T3-L1 cells [4] = experiment: Triglyceride production, Adipogenesis Colorimetric Assay; format: cell-based, mouse
Method: 3T3-L1 cells, which are preadipocytes of mice, are suspended at a concentration of 2×10^4 cells/ml using Dulbecco's Modified EaDCRT media (DMEM, Gibco) containing 10% of Bovine Calf Serum as a growth media (GM), and then inoculated into 24-well plates at 1 ml each, and then adipocytes were cultured for 3 days to become confluent. In order to induce adipocyte differentiation, DMEM media containing 10% FBS was replaced with differentiation media (DM) supplemented with insulin, dexamethasone and 3-isobutyl-1-methylanthin (IBMX) and cultured for 2 days. After 2 days, DMEM media containing 10% FBS containing insulin was added to the existing medium. […] After differentiation was induced under the same conditions as above, triglyceride (TG) produced was measured using an Adipogenesis Colorimetric Assay (Biovision) kit. According to the protocol provided in the kit, after washing the cells once with PBS, 100 μl of Lipid Extract solution was added to scrape the cells, and the cells were placed at 90° C. for 30 minutes. Thereafter, the supernatant, which had turned cloudy, was left at room temperature until it became transparent, and then 50 μl of the supernatant was obtained and transferred to a 96-well plate. After adding 2 μl of lipase and reacting for 10 minutes, 50 μl of the reaction mixture containing the probe and enzyme mix was added and reacted, and the degree of color development was measured at 570 nm with a microplate meter. The concentration of triglyceride produced in the cells was determined using a standard curve for each concentration according to the triglyceride sample included in the kit.

[5] = Example 12 HFD mice: serum test; format: in vivo, mouse; conditions: serum of HFD mice, oral once daily for 10 weeks; chiisanogenin 50 mg/kg; Garcinia cambogia extract 200 mg/kg; combination 50 + 150 mg/kg; Met 50 mg/kg
Method: The test drug was dispersed in 0.5% Carboxymethyl cellulose (CMC) and administered in a volume of 0.2 ml, and the drug was administered orally by force into the stomach using a metal Zonde for oral administration. Blood was collected by cardiac puncture to conduct a blood biochemical test after the end of the final experiment, and then plasma was separated by centrifugation at 3,000 rpm and 4° C. for 15 minutes within 30 minutes after blood collection, and then stored at −74° C. for blood chemistry and ELISA analysis. The contents of total cholesterol, high-density lipoprotein (HDL), low-density lipoprotein (LDL), triglyceride, FFA, glucose, and LDH, which are indicators of lipid content, were measured using an automated biochemical analyzer (Hitachi-720, Hitachi Medical, Japan). IGF-1 and Creatine were diluted in coating buffer, coated on microwells, and left overnight at 4° C. […] 100 μl of the TMB substrate was dispensed, left in the dark for 30 minutes, treated with 50 μl of the stop solution, and absorbance was measured at a wavelength of 450 nm using an ELISA reader. Results obtained from various experiments are recorded as mean±standard error of mean (SEM), and significance verification is determined using the student's T-test analysis method. […]

PPAR-gamma mRNA = experiment: Example 12 HFD mice: adipose tissue PPAR-gamma mRNA analysis; format: in vivo, mouse; conditions: adipose tissue of HFD mice, oral once daily for 10 weeks, chiisanogenin 50 mg/kg, Garcinia cambogia extract 200 mg/kg, combination 50 + 150 mg/kg, Met 50 mg/kg
Method: The test drug was dispersed in 0.5% Carboxymethyl cellulose (CMC) and administered in a volume of 0.2 ml, and the drug was administered orally by force into the stomach using a metal Zonde for oral administration. RNA was extracted from tissues using RNAsolB (Tel-Test) solution, and cDNA and real-time PCR analysis were performed using One-step SYBR Green PCR kit (AB science). From the prepared cDNA, a FAM probe of [NT] ID NO: 16) sequence was used to amplify PPAR-gamma mRNA, and a VIC probe of [NT] ID NO: 15) sequence was used to amplify GAPDH mRNA as an intra control. Real time quantitative PCR was performed using the Applied Biosystems 7500 Real-Time PCR system (Applied Biosystems, USA). Results obtained from various experiments are recorded as mean±standard error of mean (SEM), and significance verification is determined using the student's T-test analysis method. The data were analyzed using one-way ANOVA to determine a statistically significant variance between each group for each final point measured, and statistical significance between each group was determined using the nonparametric Mann-Whitney test and Dunnett's multiple comparison test (IBM SPSS statistics version 19.0 statistic software, Inc, IBM, USA).

[6] = Example 12 HFD mice: oral glucose tolerance test; format: in vivo, mouse; conditions: oral once daily 10 weeks, 50 mg/kg
Method: After adapting 8-week-old male C57b1/6 J mice to the basic diet (AIN-76A diet) for 2 weeks, and consuming Diet Induced Obesity Diet Formulas (D12451) 60 kcal % HFD diet for 2 weeks from 10 weeks of age, and then the test drug was administered when the average body weight reached 28 g or more. The animal breeding room environment of the mouse was maintained in a constant temperature (25±2° C.), constant humidity (50±5%) and a 12-hour photoperiod (light on 07:00˜19:00) in which the light and shade were controlled in an SPF environment. […] The test drug was dispersed in 0.5% Carboxymethyl cellulose (CMC) and administered in a volume of 0.2 ml, and the drug was administered orally by force into the stomach using a metal Zonde for oral administration.
[…] Blood to be used for blood glucose measurement was collected from the tail vein of a mouse, and blood glucose was measured using a serum analyzer (Accutrend plus GCTL Cobas Roche, Germany).
Results obtained from various experiments are recorded as mean±standard error of mean (SEM), and significance verification is determined using the student's T-test analysis method. The data were analyzed using one-way ANOVA to determine a statistically significant variance between each group for each final point measured, and statistical significance between each group was determined using the nonparametric Mann-Whitney test and Dunnett's multiple comparison test (IBM SPSS statistics version 19.0 statistic software, Inc, IBM, USA).

3T3-L1 cells [7] = experiment: Fat accumulation, Oil Red O staining; format: cell-based, mouse
Method: 3T3-L1 cells, which are preadipocytes of mice, are suspended at a concentration of 2×10^4 cells/ml using Dulbecco's Modified EaDCRT media (DMEM, Gibco) containing 10% of Bovine Calf Serum as a growth media (GM), and then inoculated into 24-well plates at 1 ml each, and then adipocytes were cultured for 3 days to become confluent. […] In order to measure lipid accumulation after inducing the adipocyte differentiation, it was measured using Oil red 0 staining analysis (Sigma-aldrich). To fix the cells, 1% formaldehyde (based on distilled water) was added and reacted at 4° C. for 1 hour, followed by washing with distilled water, and then stained with 500 μl of filtered Oil Red 0 solution at room temperature for 1 hour. Then, after washing with distilled water, 300 μl of 100% isopropyl alcohol was added to extract intracellular oil red 0, and the degree of color development was measured at 492 nm using a microplate measuring instrument.

[8] = Table 6, mixture ratio 0:10, 25 μg/mL
[9] = Mus musculus, 3T3-L1, read-out: Inhibition Rate (TG production)

Structure (SMILES): O=C(O)CC(O)(C(=O)O)C(O)C(=O)O (centres unmarked) [Ca-HCA, hydroxy citric acid]
- Cytotoxicity (conclusion from Tables 3 to 5) (3T3-L1 cells [1]): not cytotoxic
- Cell Viability (3T3-L1 cells [1]; 12.5 μg/mL): 113.20 ± 14.37%
- Cell Viability (3T3-L1 cells [1]; 25 μg/mL): 115.37 ± 8.86%
- Cell Viability (3T3-L1 cells [1]; 50 μg/mL): 86.24 ± 8.74%
- Cell Viability (3T3-L1 cells [1]; 100 μg/mL): 88.65 ± 11.58%
- EC50 (L6 myotube cells [2]): 27.6 µM
- Glucose absorption rate (%, relative to 100 nM insulin treatment as 100%) (L6 myotube cells [3]; 5 μg/mL): 5%
- Glucose absorption rate (%, relative to 100 nM insulin treatment as 100%) (L6 myotube cells [3]; 30 μg/mL): 50%
- inhibition at 25 µg/mL (3T3-L1 cells [4]; Mus musculus, 3T3-L1, Table 9, 25 μg/mL, read-out: Inhibition Rate (TG production)): 6.62 ± 0.98%
- inhibition at 50 µg/mL (3T3-L1 cells [4]; Mus musculus, 3T3-L1, Table 9, 50 μg/mL, read-out: Inhibition Rate (TG production)): 11.4 ± 0.88%
- TG Production Rate (% relative to positive control) (3T3-L1 cells [4]; Table 9, 25 μg/mL): 94.51 ± 0.81%
- TG Production Rate (% relative to positive control) (3T3-L1 cells [4]; Table 9, 50 μg/mL): 90.54 ± 0.73%

Structure (SMILES): C=C(C)[C@@H]1CC[C@]2(C(=O)O)CC[C@]3(C)[C@H](C[C@H]4OC(=O)C[C@@H](O)[C@]5(C)[C@@H]4[C@@]3(C)CC[C@H]5C(=C)C)[C@@H]12 [Chiisanogenin, chiisanogenin]
- Creatin (mg/dL), mean ± standard error [5]: 0.635 ± 0.007 mg/dL
- PPAR-γ mRNA Inhibition Rate (%) (PPAR-gamma mRNA): 49%
- PPAR-γ mRNA, mean ± standard error (PPAR-gamma mRNA; real-time PCR vs GAPDH): 2.134 ± 0.39
- Inhibition Rate (OGTT) [6]: 38%
- OGTT (30 min-0 min, mg/dL) ([6]; glucose 1 g/kg): 127.4 ± 13.03 mg/dL
- Cytotoxicity (conclusion from Tables 3 to 5) (3T3-L1 cells [1]): not cytotoxic
- Cell Viability (3T3-L1 cells [1]; 10 μg/mL): 127.27 ± 18.60%
- Cell Viability (3T3-L1 cells [1]; 12.5 μg/mL): 106.41 ± 3.40%
- Cell Viability (3T3-L1 cells [1]; 50 μg/mL): 117.77 ± 9.59%
- Cell Viability (3T3-L1 cells [1]; 100 μg/mL): 104.31 ± 9.72%
- EC50 (L6 myotube cells [2]): 23.3 µM
- inhibition at 10 µg/mL (3T3-L1 cells [7]; Mus musculus, 3T3-L1, Table 7, 10 μg/mL, read-out: Inhibition Rate (fat accumulation)): 11.3 ± 1.47%
- Fat Accumulation Rate (% relative to positive control) (3T3-L1 cells [7]; [8]): 87.21 ± 4.82 %
- Inhibition Rate (fat accumulation) (3T3-L1 cells [7]; [8]): 22.59 ± 7.34%
- Fat Accumulation Rate (% relative to positive control) (3T3-L1 cells [7]; Table 7, 10 μg/mL): 95.13 ± 5.90%
- Glucose absorption rate (%, relative to 100 nM insulin treatment as 100%) (L6 myotube cells [3]; 5 μg/mL): 1%
- Glucose absorption rate (%, relative to 100 nM insulin treatment as 100%) (L6 myotube cells [3]; 15 μg/mL): 25%
- inhibition at 10 µg/mL (3T3-L1 cells [4]; [9]): 11.4 ± 5.34%
- inhibition at 25 µg/mL (3T3-L1 cells [4]; [9]): 6.47 ± 0.73%
- inhibition at 50 µg/mL (3T3-L1 cells [4]; [9]): 22.8 ± 0.25%
- TG Production Rate (% relative to positive control) (3T3-L1 cells [4]; Table 8, 10 μg/mL): 90.84 ± 4.21%
- TG Production Rate (% relative to positive control) (3T3-L1 cells [4]; Table 9, 25 μg/mL): 94.63 ± 0.61%
- TG Production Rate (% relative to positive control) (3T3-L1 cells [4]; Table 9, 50 μg/mL): 81.07 ± 0.20%
